Legend:
A549 cells [1] = assay: A549 cell viability, ZF9-MQ1 alone and with BET or MEK inhibitors (CellTiter-GLO); assay type: cell-based, human; details: 72-hour incubation, single agent
Procedure: This example evaluates the effect of ZF9-MQ1 construct on A549 cell viability when used in combination with varying concentrations of JQ1 inhibitor.
(§1) A549 cells were seeded at 4,000 cells per well in duplicate plates for cell viability analysis. The 96-well plates were treated in triplicate with GFP or ZF9-MQ1 loaded LNPs at 0.5 ug/mL or 1.0 μg/mL in combination with increasing concentrations of the BET inhibitor JQ1 (concentrations up to 6.25 uM) and incubated. Untreated cells and GFP treated cells were used as controls. After 72-hour incubation, one 96-well plate was lysed with CellTiter-GLO® and luminescence was quantified using the GloMax® Discovery plate reader.
This example evaluates the effect of ZF9-MQ1 construct on A549 cell viability when used in combination with varying concentrations of BET762 inhibitor.
as §1, with “μg/mL” for “ug/mL”, “concentrations (concentrations up to 1.25 uM)” for “concentrations”, “BET762” for “JQ1 (concentrations up to 6.25 uM)”
This example evaluates the effect of ZF9-MQ1 construct on A549 cell viability when used in combination with varying concentrations of BET inhibitor, Birabresib.
as §1, with “μg/mL” for “ug/mL”, “concentrations (concentrations up to 0.625 uM for 0.5 μg/ml ZF9-MQ1 treated cells and up to 0.313 uM for 1.0 μg/ml ZF9-MQ1 treated cells)” for “concentrations”, “Birabresib” for “JQ1 (concentrations up to 6.25 uM)”
This example evaluates the effect of ZF9-MQ1 construct on A549 cell viability when used in combination with varying concentrations of MEK inhibitor, Trametinib.
as §1, with “μg/mL” for “ug/mL”, “concentrations” for “concentrations of the BET inhibitor JQ1”, “0.05” for “6.25”, “uM) of the MEK inhibitor Trametinib” for “uM)”, “Untreated cells and GFP treated cells were used as controls.” left out

A549 cells [2] = assay: A549 viability with ZF9-MQ1 and small molecule inhibitors, alone and combined; assay type: cell-based, human; details: each agent separately
MYC = MYC mRNA expression by qPCR in human lung cancer cell lines after LNP transfection; assay type: cell-based
Procedure: Viability was measured using the CellTiter-GLO® assay kit from Promega according to manufacturer's protocol. RNA was isolated from three biological replicates, using the Rneasy® Plus 96-well Kit (Qiagen) following the Manufacturer's protocol. RNA samples were retrotranscribed to cDNA using LunaScript® RT SuperMix Kit (NEB) and analyzed by quantitative PCR (qPCR) (in technical triplicates) using a MYC specific TaqMan™ primer/probe set assay with the TaqMan™ Fast Advanced Master Mix (Thermo Scientific). MYC expression was quantified relative to the expression of GAPDH reference genes using the ΔΔCt method, the untreated and dCas9(no-effector) samples were used as calibrators.
(§2) Guide RNAs (Table 13) were designed across the lung super-enhancer region and tested in combination with the KRAB repressor protein conjugated to an enzymatically dead CAS9. The effector mRNA and guide RNAs were co-delivered using LNP delivery with SSOP with mRNA delivery of GFP as a negative control. NCSLC cell line A549 were seeded in 96-well plates in growth media (10000 cells/well). LNP formulations (2.5 ug/ml) were then added to the cells to transfect the effector mRNA/guide RNA then incubated for 72 hours. RNA was isolated from three biological replicates, using the Rneasy® Plus 96-well Kit (Qiagen) following the Manufacture's protocol. RNA samples were retrotranscribed to cDNA using LunaScript® RT SuperMix Kit (NEB) and analyzed by quantitative PCR (qPCR) (in technical triplicates) using a MYC specific TaqMan™ primer/probe set assay with the TaqMan™ Fast Advanced Master Mix (Thermo Scientific). MYC expression was quantified relative to the expression of GAPDH reference genes using the ΔΔCt method, the untreated samples were used as calibrators.
as §2, with “GuideRNAs” for “Guide RNAs”, “MC3” for “SSOP”
Guide RNAs (GD-29833 and GD-29914) targeted to the MYC super-enhancer were tested in combination with repressor proteins including the histone methyltransferase EZH2 (alone or in conjunction with KRAB) and the DNA methyltransferase MQ1 conjugated to an enzymatically dead CAS9. The effector mRNA and guide RNAs were co-delivered using LNP delivery with SSOP with mRNA delivery of GFP as a negative control. NCSLC cell lines A549 or NCI-H2009 were seeded in 96-well plates in growth media (10000 cells/well). LNP formulations (2.5 ug/ml) were then added to the cells to transfect the effector mRNA/guide RNA then incubated for 72 hours. RNA was isolated from three biological replicates, using the Rneasy® Plus 96-well Kit (Qiagen) following the Manufacture's protocol. RNA samples were retrotranscribed to cDNA using LunaScript® RT SuperMix Kit (NEB) and analyzed by quantitative PCR (qPCR) (in technical triplicates) using a MYC specific TaqMan′ primer/probe set assay with the TaqMan™ Fast Advanced Master Mix (Thermo Scientific). MYC expression was quantified relative to the expression of GAPDH reference genes using the ΔΔCt method, the untreated samples were used as calibrators. […]

[3] = A549, guide delivered with KRAB or MQ1, 120 hours
[4] = A549, guide delivered with dCAS9-KRAB effector mRNA, MC3 LNP 2.5 ug/ml, 72 hours
[5] = A549, guide delivered with dCAS9-KRAB effector mRNA, SSOP LNP 2.5 ug/ml, 72 hours
[6] = A549, guide delivered with dCas9 effectors EZH2, EZH2-KRAB and MQ1, 72 hours
[7] = NCI-H2009, guide delivered with KRAB or MQ1, 120 hours
[8] = NCI-H2009, guide delivered with dCas9 effectors EZH2, EZH2-KRAB and MQ1, 72 hours

## CCNC(=O)C[C@@H]1N=C(c2ccc(Cl)cc2)c2cc(OC)ccc2-n2c(C)nnc21 [BET762]
A549 cells [1]
  A549 cell viability, each agent separately: inhibited cell viability
A549 cells [2]
  inhibition of A549 cell viability, single agent: inhibited cell viability of A549 cells

## Cc1sc2c(c1C)C(c1ccc(Cl)cc1)=N[C@@H](CC(=O)Nc1ccc(O)cc1)c1nnc(C)n1-2 [birabresib]
A549 cells [1]
  A549 cell viability, each agent separately: inhibited cell viability
A549 cells [2]
  inhibition of A549 cell viability, single agent: inhibited cell viability of A549 cells

## CC(=O)Nc1cccc(-n2c(=O)n(C3CC3)c(=O)c3c(Nc4ccc(I)cc4F)n(C)c(=O)c(C)c32)c1 [trametinib]
A549 cells [1]
  A549 cell viability, each agent separately: inhibited cell viability
A549 cells [2]
  inhibition of A549 cell viability, single agent: inhibited cell viability of A549 cells

## GD-29833: guide RNA to MYC lung super-enhancer, SEQ ID NO: 96 (guide TGCCACTTCCCCACTAACCC; listed as DNA, chemistry not given here; listed as Homo sapiens)
MYC; [3]
  MYC mRNA down-regulation (in words): significantly downregulate MYC mRNA levels
MYC; [4]
  MYC mRNA down-regulation (in words): effectively downregulate MYC mRNA levels
MYC; [5]
  MYC mRNA down-regulation (in words): effectively downregulate MYC mRNA levels
MYC; [6]
  MYC mRNA down-regulation (in words): effectively downregulate MYC mRNA levels
MYC; [7]
  MYC mRNA down-regulation (in words): significantly downregulate MYC mRNA levels
MYC; [8]
  MYC mRNA down-regulation (in words): effectively downregulate MYC mRNA levels

## GD-29914: guide RNA to MYC lung super-enhancer, SEQ ID NO: 108 (guide CAGCACTCTCGCTGACCGCA; listed as DNA, chemistry not given here; listed as Homo sapiens)
MYC; [3]
  MYC mRNA down-regulation (in words): significantly downregulate MYC mRNA levels
MYC; [4]
  MYC mRNA down-regulation (in words): effectively downregulate MYC mRNA levels
MYC; [5]
  MYC mRNA down-regulation (in words): effectively downregulate MYC mRNA levels
MYC; [6]
  MYC mRNA down-regulation (in words): effectively downregulate MYC mRNA levels
MYC; [7]
  MYC mRNA down-regulation (in words): significantly downregulate MYC mRNA levels
MYC; [8]
  MYC mRNA down-regulation (in words): effectively downregulate MYC mRNA levels
